# Legend:
# [1] = tested on: B.st. spores; experiment: Single service kidney swab microbial growth inhibition test, culture of Example 1, with or without beta-lactam receptor; assay type: cell-based, Bacillus (Geobacillus) Stearothermophilus; details: for test result With receptor: with 1 U receptor
# Procedure: A Bromocresol purple (BCP)/Tris Solution was prepared by combining 25 mL of a Trizma Base solution (TBS), the solution including 2.5 grams Trizma Base in 100 mL of reverse osmosis/deionized water (RO/DI Water), with 100 milligrams of BCP and mixing well. The media was prepared by dissolving 5 grams glucose and 1 gram Mueller Hinton Broth (Mueller Hinton broth includes, in purified filtered water, 2 grams per liter (g/L) beef extract, 17.5 g/L casein hydrolysate acid and 1.5 g/L starch, pH 7.3 at 25 degrees C) into 100 mL RO/DI Water. Then a 0.01 mg/mL solution of trimethoprim in RO/DI Water was prepared and 1.2 mL was added to the media. Next 20 mL of BCP/Tris (sterile filtered through 0.45 micron filter) was added to the media.
# (§1) Agar was prepared by combining 0.3 grams Difco Bacto-Agar (Item #0140-01), 0.225 NaCl and 17.485 RO/DI Water. The mixture was heated to 95° C. and then removed from the heat and allowed to cool to 75° C. Next 6 mL of media (prepared as described above with BCP/Tris) was added to the agar and mixed for 5 minutes. The mixture was cooled to 57° C. and 1 mL spore solution (concentration of 1 billion cfu/mL) was added and mixed together for 5 minutes. 0.200 mL was dispensed into the bottom of a vial 4.
# The dispensed vial 4 was prepared as described in example 1. An extractant was prepared by adding 4.8 grams of 47.2% Trizma Base and 52.5% Potassium Phosphate Monobasic to 1000 mL RO/DI Water (pH should be 7.5+/−0.10). The extractant was sealed within the niblet 5 and the niblet was added to the vial 4. The vial 4 was heat sealed with foil.
# The single service kidney swab procedure was run by first making a 3 inch incision into kidney. The swab 1 was then withdrawn from the test unit, the test unit in the form of a POCKETSWAB, by gently pulling and twisting the handle 2 out of the test unit body 7. The swab 1 was then inserted into the incision of the kidney and allowed to sit for 15 minutes to allow full absorption of liquid into the swab 1. The swab 1 was reinserted by gently pushing down and twisting to engage the threads 6 and screwing the handle down slowly about halfway. The swab tip 3 punctured the seals 12, 13 & 14 immersing the swab tip 3 into the extractant within the niblet 5 where it sat for 2 minutes. The swab 1 was then screwed down all the way. After shaking and tapping the vial 4 to get residual liquid into the bottom of the vial 4 and in contact with the culture 15, we placed the vial 4 into a heat block set at 67° C. and incubated for 2.5 hours (if urine is tested instead of kidney, incubate for 4 hours).
# Culture is prepared as in Example 1. Prior to dispensing 200 microliters into the vial 4, antibiotic binder is prepared, in this example an antibiotic binder from the cell wall of B.st., also known as receptor. Varying amounts of inhibitory receptor units are mixed into the culture. Receptor is defined as protein removed from cellular membrane of B.st. A receptor unit (1 U) is the amount of receptor that will, in the test, reverse the culture growth inhibition of 12.5 ppb of penicillin G.
# Results in Table 1 are from tests using the culture described in Example 1 and with the addition of receptor added into rinse buffer (rinse buffer composition is 4.8 grams of 47.2% Trizma Base and 52.5% Potassium Phosphate Monobasic to 1000 mL RO/DI Water) at 0, 0.3 units (U), 1.0 U, 2.0 U, 5.0 Upper test. Sample contained the following amounts of penicillin G: 0, 5 parts per billion (ppb), 10 ppb, 12.5 ppb, 25 ppb and 50 ppb. As shown, 1.0 U was able to reverse the result of a 12.5 ppb penicillin G sample. Results are either positive (+) or negative (−).
# Results are either positive (+), negative (−) or borderline between positive and negative (+/−). Abbreviations are penicillin G (PenG); sulfamethazine (SMZ); sulfadimethoxine (SDM); tylosin (TY); gentamicin (G); oxytetracycline (OT). […]
# [2] = tested on: B.st. spores; experiment: Antibiotic detection test in spiked milk, borate/succinate culture of Example 6 (Table 4); assay type: cell-based, Bacillus (Geobacillus) Stearothermophilus; design: key to Color 1 / Color 2: Color result 1 and 2 is a negative result; Color result 1 and 2 is a negative result; 3 is a borderline result; 4 and 5 is a positive result; 4 and 5 is a positive result; details: for % Pos (Color 2) / Color 2: after 16 hours at room temperature; for % Pos (Color 1) / Color 1: immediately after test completion
# Procedure: BCP/Borate/Succinate Solution was prepared by adding 3.8 grams of Borate and 6 grams Succinate to 100 mL of reverse osmosis/deionized water (RO/DI Water) in 125 mL flask. 50 milligrams of BCP was added to a 50 mL conical tube and 5 mL of Borate/Succinate solution was added to the 50 milligrams BCP and mixed.
# To prepare media 5 grams glucose and 1 gram Mueller Hinton Broth was dissolved in 100 mL RO/DI Water. 1.2 mL of a 0.01 mg/mL solution of trimethoprim in RO/DI Water was prepared and added to the media. A 20 mL of BCP/Borate/Succinate was added to the media and the media was sterile filtered through a 0.45 micron filter and then cooled to 4 degrees C.
# as §1, with “each of the vials.” for “a vial 4.”
# In test operation 200 microliters of various milk sample, spiked with known concentrations of antibiotics, were pipetted into test vials and incubated for the prescribed time (in this test 2 hours 10 minutes) and prescribed temperature (64 degrees C.+/−2 degrees C.). Incubation was in the Charm I Inctronic incubator. Results were recorded immediately after test completion (Color 1) and after being left at room temperature for 16 hours (Color 2). Results listed are in parts per billion (ppb). 4 samples were run at each concentrations except for raw negative milk (16 samples) and 3 ppb pen G (2 samples) and amoxicillin (2 samples). Abbreviations are penicillin G (PenG); sulfamethazine (SMZ); sulfadimethoxine (SDM); tylosin (TY); gentamicin (G); oxytetracycline (OT); pirlimycin (Pirl); amoxicillin (Amox); ampicillin (Amp); cloxacillin (Clox); ceftiofur sodium (Ceft); cephaprin (Ceph); tilmicosin (Til); sulfadoxine (SDN); neomycin (Neo). Color result 1 and 2 is a negative result, 3 is a borderline result and 4 and 5 is a positive result.
# [3] = drug concentration 300 (unit not given)
# [4] = drug concentration 500 (unit not given)
# [5] = drug concentration 800 (unit not given)
# [6] = drug concentration 400 (unit not given)
# [7] = drug concentration 600 (unit not given)
compound,measurement,setting,value
"CC[C@H]1OC(=O)C[C@@H](O)[C@H](C)[C@@H](O[C@@H]2O[C@H](C)[C@@H](O[C@H]3C[C@@](C)(O)[C@@H](O)[C@H](C)O3)[C@H](N(C)C)[C@H]2O)[C@@H](CC=O)C[C@@H](C)C(=O)/C=C/C(C)=C/[C@@H]1CO[C@@H]1O[C@H](C)[C@@H](O)[C@@H](OC)[C@H]1OC [TY, tylosin]",test result w/out receptor,[1]; [3],+/−
same,test result With receptor,[1]; [3],+/−
same,test result w/out receptor,[1]; [4],+
same,test result With receptor,[1]; [4],+
same,test result w/out receptor,[1]; [5],+
same,test result With receptor,[1]; [5],+
same,% Pos (Color 2),[2]; milk spiked at 40 ppb,100%
same,Color 2,[2]; milk spiked at 40 ppb,4
same,% Pos (Color 1),[2]; milk spiked at 40 ppb,100%
same,Color 1,[2]; milk spiked at 40 ppb,5
same,% Pos (Color 2),[2]; milk spiked at 50 ppb,100%
same,Color 2,[2]; milk spiked at 50 ppb,5
same,% Pos (Color 1),[2]; milk spiked at 50 ppb,100%
same,Color 1,[2]; milk spiked at 50 ppb,5
gentamicin,test result w/out receptor,[1]; [6],+/−
same,test result With receptor,[1]; [6],+/−
same,test result w/out receptor,[1]; [7],+/−
same,test result With receptor,[1]; [7],+/−
same,test result w/out receptor,[1]; [5],+/−
same,test result With receptor,[1]; [5],+/−
same,% Pos (Color 2),[2]; milk spiked at 300 ppb,100%
same,Color 2,[2]; milk spiked at 300 ppb,4
same,% Pos (Color 1),[2]; milk spiked at 300 ppb,100%
same,Color 1,[2]; milk spiked at 300 ppb,4
same,% Pos (Color 2),[2]; milk spiked at 400 ppb,100%
same,Color 2,[2]; milk spiked at 400 ppb,5
same,% Pos (Color 1),[2]; milk spiked at 400 ppb,100%
same,Color 1,[2]; milk spiked at 400 ppb,5

# Reference: patent US8476064B2, “Inhibition assay method and device for detection of antibiotics” (Charm Sciences, Inc., priority 2006, dated 2013)
